Experimental data taken from patent US20230295152A1 (SENDA BIOSCIENCES, INC., priority 2019, published 2023).
Each block holds one compound with its values, some of them ahead of it.

Biological target: T1, AHR (Homo sapiens, UniProt P35869)
T1 construct: other cell line with a DRE-luciferase reporter stably transfected; endogenous in cells; host or cells: HepG2 AhR-Lucia reporter cells
T1 sequence (P35869 11-848): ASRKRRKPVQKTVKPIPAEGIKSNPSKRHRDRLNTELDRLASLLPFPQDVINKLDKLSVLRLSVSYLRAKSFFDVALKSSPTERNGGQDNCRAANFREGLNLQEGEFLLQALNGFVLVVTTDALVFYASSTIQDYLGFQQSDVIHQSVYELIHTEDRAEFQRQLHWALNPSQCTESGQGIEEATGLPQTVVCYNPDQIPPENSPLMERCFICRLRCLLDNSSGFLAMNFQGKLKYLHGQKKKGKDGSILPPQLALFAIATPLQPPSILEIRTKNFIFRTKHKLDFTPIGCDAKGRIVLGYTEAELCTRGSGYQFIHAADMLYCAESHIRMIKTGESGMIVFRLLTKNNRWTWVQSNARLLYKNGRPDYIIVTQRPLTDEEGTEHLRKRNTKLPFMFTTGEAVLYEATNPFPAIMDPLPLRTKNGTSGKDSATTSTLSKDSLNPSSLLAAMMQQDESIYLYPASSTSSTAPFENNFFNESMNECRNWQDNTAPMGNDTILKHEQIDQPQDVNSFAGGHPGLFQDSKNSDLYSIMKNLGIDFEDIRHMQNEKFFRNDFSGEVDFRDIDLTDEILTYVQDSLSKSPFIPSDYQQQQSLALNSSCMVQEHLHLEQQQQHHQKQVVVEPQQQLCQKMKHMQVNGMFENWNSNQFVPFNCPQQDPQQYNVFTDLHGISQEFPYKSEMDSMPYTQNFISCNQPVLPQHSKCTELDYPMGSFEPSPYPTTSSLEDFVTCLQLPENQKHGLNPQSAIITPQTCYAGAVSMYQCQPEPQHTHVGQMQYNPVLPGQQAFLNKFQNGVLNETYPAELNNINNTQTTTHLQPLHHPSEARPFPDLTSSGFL
Test: DRE-Luciferase Reporter Assay, HepG2 AhR-Lucia reporter cells
Format: cell-based
Conditions: with AHR activating ligand at EC50, read-out: HepG2-Luc IC50
From the text: AHR binds to Dioxin Responsive Elements (DRE) upstream of genes that it activates. One measure of AHR activity is activation of a reporter gene, such as luciferase, downstream of one or multiple DRE elements. Luciferase activity will reflect activation and inhibition of AHR in the cells expressing his reporter. 20000 Human HepG2 liver carcinoma—AhR-Lucia reporter cells or Human HT29 colon adenocarcinoma—AhR reporter cells or other cell line with a DRE-luciferase reporter stably transfected were plated in Eagle's Minimal Essential Medium, 10% heat-inactivated FBS, 1× non-essential amino acids Pen-Strep (10,000 U/mL) and Normocin (100 ug/mL) in plates (96-well, 384-well or other plates) and incubated overnight at 37° C. in a CO2 incubator and treated with and without AhR antagonists at a log dilution starting at 100 uM.
After 1 hr that cells were plated an AHR activating ligand, such as TCDD, kynurenine, ITE (2-(1H-indole-3-ylcarbonyl)-4-thiazolecarboxylic methyl ester), VAF347, BNF (beta-naphthoflavone), FICZ (6-formylindolo(3,2-b) carbazole) or other AHR ligands at their specific EC50 concentration, were added to the cells with or without AHR antagonist.
Cells were incubated for 24 or 48 hours or another time point and then, supernatant was analyzed for determination of luciferase activity as a read-out of the AHR activation or inhibition. Luciferase was measured with the commercial kit QUANTI-Luc™ assay solution kit from Invivogen following the manufacturer's instructions.
The level of luciferase with only agonist ligand added was the maximum signal while the luciferase with […] was the minimum signal. IC50 values were determined as the concentration which inhibits half of the luciferase activity.

Structure (SMILES): O=c1c2cc(-c3ccc(Cl)cc3)nc(-c3cccnc3)c2ncn1C1COCC1O (racemic) [Compound 29]
IC50: < 100 nM

Structure (SMILES): O=c1c2cc(-c3ccc(Cl)cc3)nc(-c3cccnc3)c2ncn1C1COCC1O (racemic) [Compound 32]
IC50: < 100 nM

Structure (SMILES): C[C@@H](CO)n1cnc2c(-c3cccnc3)nc(Cl)cc2c1=O [Compound 11, (S)-6-chloro-3-(1-hydroxypropan-2-yl)-8-(pyridin-3-yl)pyrido[3,4-d]pyrimidin-4(3H)-one]
IC50: > 500 nM

Structure (SMILES): Cn1cc(-c2cc3c(=O)n(CC(C)(C)O)cnc3c(-c3cnn(C)c3)n2)cn1 [Compound 19]
IC50: > 500 nM

Structure (SMILES): Cc1ccc(-c2cc3c(=O)n([C@@H](C)COCc4ccccc4)cnc3c(-c3cccc(F)c3)n2)cc1 [Compound 40, 3-[(1S)-2-benzyloxy-1-methyl-ethyl]-8-(3-fluorophenyl)-6-(p-tolyl)pyrido[3,4-d]pyrimidin-4-one]
IC50: > 500 nM

Structure (SMILES): COC(=O)c1ccc(-c2cc3c(=O)n([C@@H](C)CO)cnc3c(-c3cccnc3)n2)cn1 [Compound 52]
IC50: > 500 nM

Structure (SMILES): CC(C)(O)Cn1cnc2c(-c3cccnc3)nc(-c3cccnc3)cc2c1=O [Compound 59]
IC50: > 500 nM

Structure (SMILES): Cc1ccncc1-c1nc(-c2ccc(C(F)(F)F)nc2)cc2c(=O)n([C@@H](C)CO)cnc12 [Compound 64]
IC50: > 500 nM

Structure (SMILES): Cc1ncsc1-c1cc2c(=O)n([C@@H](C)CO)cnc2c(-c2cccnc2)n1 [Compound 65]
IC50: 100 to 500 nM

Structure (SMILES): C[C@@H](CO)n1cnc2c(-c3ccc(C(F)(F)F)nc3)nc(-c3ccc(C(F)(F)F)nc3)cc2c1=O [Compound 69]
IC50: 100 to 500 nM

Structure (SMILES): C[C@@H](CO)n1cnc2c(-c3ccc(=O)n(C)c3)nc(-c3ccc(Cl)cc3)cc2c1=O [Compound 73]
IC50: > 500 nM

Structure (SMILES): Cc1cc(C(F)(F)F)ncc1-c1cc2c(=O)n([C@@H](C)CO)cnc2c(-c2cccnc2)n1 [Compound 75]
IC50: 100 to 500 nM

Structure (SMILES): C[C@@H](CO)n1cnc2c(-c3cnn(C)c3)nc(-c3cccnc3)cc2c1=O [Compound 76]
IC50: 100 to 500 nM

Structure (SMILES): C[C@@H](CO)n1cnc2c(-c3cccnc3)nc(C3=CCCCC3)cc2c1=O [Compound 77, (S)-6-(Cyclohex-1-en-1-yl)-3-(1-hydroxypropan-2-yl)-8-(pyridin-3-yl)pyrido[3,4-d]pyrimidin-4(3H)-one]
IC50: > 500 nM

Structure (SMILES): C[C@@H](CO)n1cnc2c(-c3cncc(F)c3)nc(-c3cncc(F)c3)cc2c1=O [Compound 78]
IC50: 100 to 500 nM

Structure (SMILES): CC(C)(O)Cn1cnc2c(-c3cccnc3)nc(-c3cccnc3C(F)(F)F)cc2c1=O [Compound 80]
IC50: > 500 nM

Structure (SMILES): C[C@@H](CO)n1cnc2c(-c3cccnc3)nc(-c3cncs3)cc2c1=O [Compound 84]
IC50: > 500 nM

Structure (SMILES): C[C@@H](CO)n1cnc2c(C3=CCCN(C)C3)nc(-c3ccc(C(F)(F)F)nc3)cc2c1=O [Compound 91]
IC50: 100 to 500 nM

Structure (SMILES): Cc1ncc(-c2cc3c(=O)n([C@@H](C)CO)cnc3c(-c3cccnc3)n2)cn1 [Compound 93]
IC50: 100 to 500 nM

Structure (SMILES): C[C@@H](CO)n1cnc2c(-c3cccnc3)nc(-c3ccc(C(=O)O)nc3)cc2c1=O [Compound 97]
IC50: > 500 nM

Structure (SMILES): C[C@@H](CO)n1cnc2c(-c3cccnc3)nc(N3CCCCC3)cc2c1=O [Compound 100]
IC50: > 500 nM

Next, values leading:

IC50: < 100 nM
Structure (SMILES): O=c1c2cc(-c3ccc(Cl)cc3)nc(-c3cccc(F)c3)c2ncn1C[C@H](O)C(F)(F)F (stereo in doubt) [Compound 41]

IC50: < 100 nM
Structure (SMILES): O=c1c2cc(-c3ccc(Cl)cc3)nc(-c3cccc(F)c3)c2ncn1C[C@@H](O)C(F)(F)F (stereo in doubt) [Compound 42]

IC50: 100 to 500 nM
Structure (SMILES): C[C@@H](CO)n1cnc2c(-c3ccc(=O)[nH]c3)nc(-c3ccc(Cl)cc3)cc2c1=O [Compound 2]

IC50: 100 to 500 nM
Structure (SMILES): C[C@@H](CO)n1cnc2c(-c3cccc4c3OCO4)nc(-c3ccc(Cl)cc3)cc2c1=O [Compound 3]

IC50: 100 to 500 nM
Structure (SMILES): C[C@@H](CO)n1cnc2c(-c3ccncc3)nc(-c3ccc(C(F)(F)F)nc3)cc2c1=O [Compound 4]

IC50: < 100 nM
Structure (SMILES): C[C@@H](CO)n1cnc2c(-c3cncc(F)c3)nc(-c3ccc(C(F)(F)F)cc3)cc2c1=O [Compound 5]

IC50: 100 to 500 nM
Structure (SMILES): O=c1c2cc(-c3cccnc3)nc(-c3cccnc3)c2ncn1CC(O)C(F)(F)F (centres unmarked) [Compound 10]

IC50: < 100 nM
Structure (SMILES): O=c1c2cc(-c3ccc(Cl)cc3)nc(-c3cccnc3)c2ncn1CC(O)C(F)(F)F (centres unmarked) [Compound 13]

IC50: < 100 nM
Structure (SMILES): O=c1c2cc(-c3ccc(OC(F)(F)F)cc3)nc(-c3cccnc3)c2ncn1CC(O)C(F)(F)F (centres unmarked) [Compound 14]

IC50: < 100 nM
Structure (SMILES): Cn1cc(-c2nc(-c3ccc(Cl)cc3)cc3c(=O)n(CC(O)C(F)(F)F)cnc23)cn1 (centres unmarked) [Compound 15]

IC50: 100 to 500 nM
Structure (SMILES): C[C@@H](CO)n1cnc2c(-c3cccnc3)nc(-c3cccnc3)cc2c1=O [Compound 20]

IC50: 100 to 500 nM
Structure (SMILES): C[C@@H](CO)n1cnc2c(-c3cnn(C)c3)nc(-c3ccccc3)cc2c1=O [Compound 26]

IC50: < 100 nM
Structure (SMILES): Cn1cnc2c(-c3cccnc3)nc(-c3ccc(OC(F)(F)F)cc3)cc2c1=O [Compound 28]

IC50: < 100 nM
Structure (SMILES): CC(C)[C@@H](CO)n1cnc2c(-c3cc(F)cc(F)c3)nc(-c3cc(F)cc(F)c3)cc2c1=O [Compound 35]

IC50: < 100 nM
Structure (SMILES): C[C@@H](n1cnc2c(-c3cccc(F)c3)nc(-c3ccc(Cl)cc3)cc2c1=O)C(C)(C)O [Compound 39]

IC50: < 100 nM
Structure (SMILES): COC[C@H](C)n1cnc2c(-c3cccnc3)nc(-c3ccc(C)cc3)cc2c1=O [Compound 45, (S)-3-(1-methoxypropan-2-yl)-8-(pyridin-3-yl)-6-(p-tolyl)pyrido[3,4-d]pyrimidin-4(3H)-one]

IC50: 100 to 500 nM
Structure (SMILES): C[C@@H](CO)n1cnc2c(-c3cccnc3)nc(-c3cnsc3)cc2c1=O [Compound 53]

IC50: 100 to 500 nM
Structure (SMILES): C[C@@H](CO)n1cnc2c(-c3cnsc3)nc(-c3cnsc3)cc2c1=O [Compound 56]

IC50: 100 to 500 nM
Structure (SMILES): Cc1cc(Cl)ccc1-c1cc2c(=O)n(CC(C)(C)O)cnc2c(-c2cnn(C)c2)n1 [Compound 61]

IC50: < 100 nM
Structure (SMILES): C[C@@H](CO)n1cnc2c(-c3cn[nH]c3)nc(-c3ccc(C(F)(F)F)nc3)cc2c1=O [Compound 62]

IC50: 100 to 500 nM
Structure (SMILES): Cc1ncccc1-c1nc(-c2ccc(C(F)(F)F)nc2)cc2c(=O)n([C@@H](C)CO)cnc12 [Compound 63]

IC50: < 100 nM
Structure (SMILES): CC(C)c1ncc(-c2cc3c(=O)n([C@@H](C)CO)cnc3c(-c3cccnc3)n2)s1 [Compound 67]

IC50: < 100 nM
Structure (SMILES): O=c1c2cc(-c3ccc(OC(F)(F)F)cc3)nc(-c3cccnc3)c2ncn1CCO [Compound 72]

IC50: < 100 nM
Structure (SMILES): CC(C)(O)Cn1cnc2c(-c3cccnc3)nc(-c3cnc(C(F)(F)F)s3)cc2c1=O [Compound 87]

IC50: < 100 nM
Structure (SMILES): CC(C)[C@@H](CO)n1cnc2c(-c3cccc(F)c3)nc(-c3ccc(Cl)cc3)cc2c1=O [Compound 90]

IC50: < 100 nM
Structure (SMILES): CC(C)(O)Cn1cnc2c(-c3cnn(C(F)(F)F)c3)nc(-c3ccc(C(F)(F)F)nc3)cc2c1=O [Compound 94]

IC50: < 100 nM
Structure (SMILES): CC(C)(O)Cn1cnc2c(-c3cccnc3)nc(-c3cnc(C(F)(F)F)nc3)cc2c1=O [Compound 96]

IC50: < 100 nM
Structure (SMILES): Cc1ccc(-c2cc3c(=O)n([C@@H](C)CO)cnc3c(-c3cccnc3)n2)cn1 [Compound 98]

IC50: < 100 nM
Structure (SMILES): O=c1c2cc(-c3ccc(C(F)(F)F)nc3)nc(-c3cccnc3)c2ncn1C1CCS(=O)(=O)C1 (centres unmarked) [Compound 106, 3-(1,1-dioxidotetrahydrothiophen-3-yl)-8-(pyridin-3-yl)-6-(6-(trifluoromethyl)pyridin-3-yl)pyrido[3,4-d]pyrimidin-4(3H)-one]
